What all share (format): cell-based
For one experiment, the target named is T1, Human ASBT (Homo sapiens, UniProt Q12908).
T1 construct: expressed in transfected cells; kept under Puromycin selection
T1 sequence (Q12908 1-348): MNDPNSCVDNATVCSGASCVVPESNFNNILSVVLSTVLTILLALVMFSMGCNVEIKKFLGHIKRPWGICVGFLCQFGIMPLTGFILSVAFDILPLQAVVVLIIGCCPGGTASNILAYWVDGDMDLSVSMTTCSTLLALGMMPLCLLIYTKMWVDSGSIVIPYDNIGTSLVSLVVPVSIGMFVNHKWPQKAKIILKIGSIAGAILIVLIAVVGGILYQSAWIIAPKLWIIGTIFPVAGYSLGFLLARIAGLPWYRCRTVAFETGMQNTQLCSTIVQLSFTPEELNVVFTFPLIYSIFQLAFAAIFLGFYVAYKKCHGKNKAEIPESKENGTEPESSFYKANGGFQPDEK
Kind of experiment: ASBT (h/m) assay: 3H-taurocholic acid uptake in human ASBT-overexpressing cells. The note with it: 0.25 μM 3H-taurocholic acid and 5 μM cold taurocholic acid, 20 minutes, read-out: hASBT IC50. The method, boiled down:
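ASBT-overexpressing cells, seeded 48 h earlier, took up 0.25 µM 3H-taurocholic acid plus 5 µM cold taurocholate for 20 min at 37 °C with inhibitor (10-point 3-fold series, top 10 µM, 0.2% DMSO). Ice stop, washes with cold 1 mM taurocholate in HEPES-HBSS pH 7.4, scintillation counting.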

A further experiment has as its system HepaRG cells. In words: HepaRG-based assay: 3H-taurocholic acid uptake in differentiated HepaRG cells. The conditions noted are these: Homo sapiens, HepaRG, 0.3 μM 3H-taurocholic acid and 7.5 μM cold taurocholic acid, 30 minutes. The method, boiled down: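 Differentiated HepaRG cells cultured 7 days post-seeding were exposed for 30 min at 37 °C to 0.3 μM 3H-taurocholic acid plus 7.5 μM cold taurocholic acid with inhibitor (3-fold dilutions, 0.2% DMSO). Uptake was stopped on ice, washed with 1 mM unlabelled taurocholic acid, and counted by scintillation.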

A further experiment concerns the target T2, Human LBAT (Homo sapiens, UniProt Q14973).
T2 construct: expressed in transfected cells; kept under Geneticin selection
T2 sequence (Q14973 1-349): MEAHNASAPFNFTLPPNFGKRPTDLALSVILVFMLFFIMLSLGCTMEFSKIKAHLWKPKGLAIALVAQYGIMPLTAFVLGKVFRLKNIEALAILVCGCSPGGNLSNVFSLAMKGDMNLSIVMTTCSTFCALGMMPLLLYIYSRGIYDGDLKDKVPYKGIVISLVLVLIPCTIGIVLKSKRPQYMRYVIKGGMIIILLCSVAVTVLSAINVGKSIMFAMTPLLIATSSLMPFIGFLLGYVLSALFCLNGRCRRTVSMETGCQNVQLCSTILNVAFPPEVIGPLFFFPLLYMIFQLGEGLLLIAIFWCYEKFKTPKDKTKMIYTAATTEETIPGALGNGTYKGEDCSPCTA
Kind of experiment: LBAT (h/m) assay: 3H-taurocholic acid uptake in human LBAT-overexpressing cells. The conditions noted are these: 0.3 μM 3H-taurocholic acid and 7.5 μM cold taurocholic acid, 20 minutes, read-out: hLBAT IC50. The method, boiled down:
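LBAT-overexpressing cells, serum-free MEM-alpha, 20 min at 37° C with inhibitor (3-fold, 10-point) plus 0.3 μM 3H-taurocholic acid and cold taurocholic acid (7.5 μM human; 25 μM mouse), 0.2% DMSO. Stopped on ice, washed with 1 mM unlabelled taurocholate; uptake by scintillation counting.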

Consider `CCCCC1(CC)CN(c2ccccc2)c2cc(OC)c(O/C=C/C(=O)O)cc2S(=O)(=O)C1` (stereo not drawn) [Example 13, (E)-3-((3-butyl-3-ethyl-7-methoxy-1,1-dioxido-5-phenyl-2,3,4,5-tetrahydro-1,5-benzothiazepin-8-yl)oxy)acrylic Acid], for which the IC50 (usually the point on the concentration scale where inhibition reaches its midpoint) stood at 144 nM at Human ASBT, 4460 nM in the experiment with HepaRG cells and 991 nM at Human LBAT.
With `CCCCC1(CCCC)CN(c2ccccc2)c2cc(OC)c(O/C=C/C(=O)O)cc2S(=O)(=O)C1` [Example 14, (E)-3-((3,3-dibutyl-7-methoxy-1,1-dioxido-5-phenyl-2,3,4,5-tetrahydro-1,5-benzothiazepin-8-yl)oxy)acrylic Acid], the IC50 at Human ASBT came out at 304 nM; in the experiment on HepaRG cells, 5160 nM; on Human LBAT it was 1430 nM.
As for `CCCCC1(CCCC)CN(c2ccc(Br)cc2)c2cc(SC)c(O/C=C/C(=O)O)cc2S(=O)(=O)C1` [Example 15, (E)-3-((5-(4-bromophenyl)-3,3-dibutyl-7-(methylthio)-1,1-dioxido-2,3,4,5-tetrahydro-1,5-benzothiazepin-8-yl)oxy)acrylic Acid], the IC50 at Human ASBT was 253 nM; in the experiment with HepaRG cells, 2250 nM; at Human LBAT, 532 nM.
Regarding `CCCCC1(CCCC)CN(c2ccc(OC)cc2)c2cc(SC)c(O/C=C/C(=O)O)cc2S(=O)(=O)C1` [Example 19, (E)-3-((3,3-dibutyl-5-(4-methoxyphenyl)-7-(methylthio)-1,1-dioxido-2,3,4,5-tetrahydro-1,5-benzothiazepin-8-yl)oxy)acrylic Acid], the IC50 at Human ASBT is 128 nM; in the experiment with HepaRG cells, 2890 nM; at Human LBAT, 783 nM.
Turning to `CCCCC1(CC)CN(c2ccccc2)c2ccc(O/C=C/C(=O)O)cc2S(=O)(=O)C1` (stereo not drawn) [Example 21, (E)-3-((3-butyl-3-ethyl-1,1-dioxido-5-phenyl-2,3,4,5-tetrahydro-1,5-benzothiazepin-8-yl)oxy)acrylic Acid], the figures for the IC50 on Human ASBT, in the experiment with HepaRG cells and on Human LBAT were 929 nM, 5230 nM and 4150 nM, respectively.
For the compound `CCCCC1(CCCC)CN(c2ccc(NC(=O)OC)cc2)c2cc(SC)c(O/C=C/C(=O)O)cc2S(=O)(=O)C1` [Example 24, (E)-3-((3,3-dibutyl-5-(4-((methoxycarbonyl)amino)phenyl)-7-(methylthio)-1,1-dioxido-2,3,4,5-tetrahydro-1,5-benzothiazepin-8-yl)oxy)acrylic Acid], the figures for the IC50 at Human ASBT, in the experiment with HepaRG cells and at Human LBAT were 4670 nM, 2280 nM and 225 nM, respectively.
As for `CCCCC1(CCCC)CN(c2ccc(N(C)C)cc2)c2cc(SC)c(O/C=C/C(=O)O)cc2S(=O)(=O)C1` [Example 25, (E)-3-((3,3-dibutyl-5-(4-(dimethylamino)phenyl)-7-(methylthio)-1,1-dioxido-2,3,4,5-tetrahydro-1,5-benzothiazepin-8-yl)oxy)acrylic Acid], the 50% inhibitory concentration (IC50) at Human ASBT is 370 nM; in the experiment with HepaRG cells it was 3310 nM; at Human LBAT, 351 nM.
For `CCCCC1(CCCC)CN(c2ccc(NC(=O)OC(C)(C)C)cc2)c2cc(SC)c(O/C=C(\F)C(=O)O)cc2S(=O)(=O)C1` [Example 26, (Z)-3-((5-(4-((tert-butoxycarbonyl)amino)phenyl)-3,3-dibutyl-7-(methylthio)-1,1-dioxido-2,3,4,5-tetrahydro-1,5-benzothiazepin-8-yl)oxy)-2-fluoroacrylic Acid], the IC50 on Human ASBT came out at 3240 nM; with HepaRG cells, 477 nM; on Human LBAT it was 53 nM.
As for `CCCCC1(CCCC)CN(c2ccc(NC(=O)C(C)(C)C)cc2)c2cc(SC)c(O/C=C/C(=O)O)cc2S(=O)(=O)C1` [Example 27, (E)-3-((3,3-dibutyl-7-(methylthio)-1,1-dioxido-5-(4-pivalamidophenyl)-2,3,4,5-tetrahydro-1,5-benzothiazepin-8-yl)oxy)acrylic Acid], the values for the IC50 at Human ASBT, in the experiment on HepaRG cells and on Human LBAT were 4800 nM, 350 nM and 46 nM, respectively.
With `CCCCC1(CCCC)CN(c2ccc(NC(=O)C(C)(C)C)cc2)c2cc(SC)c(O/C=C(\F)C(=O)O)cc2S(=O)(=O)C1` [Example 28, (Z)-3-((3,3-dibutyl-7-(methylthio)-1,1-dioxido-5-(4-pivalamidophenyl)-2,3,4,5-tetrahydro-1,5-benzothiazepin-8-yl)oxy)-2-fluoroacrylic Acid], the IC50 on Human ASBT worked out at 4450 nM; with HepaRG cells, 89 nM; on Human LBAT, 13 nM.
For `CCCCC1(CCCC)CN(c2ccc(C(F)(F)F)cc2)c2cc(SC)c(O/C=C/C(=O)O)cc2S(=O)(=O)C1` [Example 32, (E)-3-((3,3-dibutyl-7-(methylthio)-1,1-dioxido-5-(4-(trifluoromethyl)phenyl)-2,3,4,5-tetrahydro-1,5-benzothiazepin-8-yl)oxy)acrylic Acid] the same measures were 209 nM, 672 nM and 506 nM.
As to `CCCCC1(CCCC)CN(c2ccc(NC(=O)C3CCCC3)cc2)c2cc(SC)c(O/C=C/C(=O)O)cc2S(=O)(=O)C1` [Example 37, (E)-3-((3,3-dibutyl-5-(4-(cyclopentanecarboxamido)phenyl)-7-(methylthio)-1,1-dioxido-2,3,4,5-tetrahydro-1,5-benzothiazepin-8-yl)oxy)acrylic Acid], the IC50 at Human ASBT came to 2000 nM; in the experiment with HepaRG cells, 592 nM; on Human LBAT, 45 nM.
As to `CCC1(CC)CN(c2ccccc2)c2cc(SC)c(O/C=C/C(=O)O)cc2S(=O)(=O)C1` [Example 39, (E)-3-((3,3-diethyl-7-(methylthio)-1,1-dioxido-5-phenyl-2,3,4,5-tetrahydro-1,5-benzothiazepin-8-yl)oxy)acrylic Acid], the results for the IC50 on Human ASBT, in the experiment on HepaRG cells and at Human LBAT were 796 nM, 399 nM and 75 nM, respectively.
For the compound `CCCCC1(CCCC)CN(c2ccc(NC(=O)CCC)cc2)c2cc(SC)c(O/C=C/C(=O)O)cc2S(=O)(=O)C1` [Example 40, (E)-3-((3,3-dibutyl-5-(4-butyramidophenyl)-7-(methylthio)-1,1-dioxido-2,3,4,5-tetrahydro-1,5-benzothiazepin-8-yl)oxy)acrylic Acid], the results for the IC50 on Human ASBT, in the experiment with HepaRG cells and on Human LBAT were 4550 nM, 1510 nM and 108 nM, respectively.
For `CCCCC1(CCCC)CN(c2ccccc2)c2ccc(O/C=C(\F)C(=O)O)cc2S(=O)(=O)C1` [Example 45, (Z)-3-((3,3-dibutyl-1,1-dioxido-5-phenyl-2,3,4,5-tetrahydro-1,5-benzothiazepin-8-yl)oxy)-2-fluoroacrylic Acid] the same measures were 1460 nM, 3160 nM and 201 nM.
For `CCCCC1(CCCC)CN(c2ccccc2)c2cc(Cl)c(O/C=C(\F)C(=O)O)cc2S(=O)(=O)C1` [Example 53, (Z)-3-((3,3-dibutyl-7-chloro-1,1-dioxido-5-phenyl-2,3,4,5-tetrahydro-1,5-benzothiazepin-8-yl)oxy)-2-fluoroacrylic Acid], the figures for the concentration for half-maximal inhibition (IC50) at Human ASBT, in the experiment with HepaRG cells and on Human LBAT were 280 nM, 800 nM and 62 nM, respectively.
Take `CCC1(CC)CN(c2ccccc2)c2cc(I)c(O/C=C/C(=O)O)cc2S(=O)(=O)C1` [Example 54, (E)-3-((3,3-diethyl-7-iodo-1,1-dioxido-5-phenyl-2,3,4,5-tetrahydro-1,5-benzothiazepin-8-yl)oxy)acrylic Acid]: the IC50 at Human ASBT was 186 nM; in the experiment on HepaRG cells, 260 nM; on Human LBAT, 100 nM.
For `CCC1(CC)CN(c2ccccc2)c2cc(Br)c(O/C=C/C(=O)O)cc2S(=O)(=O)C1` [Example 55, (E)-3-((7-bromo-3,3-diethyl-1,1-dioxido-5-phenyl-2,3,4,5-tetrahydro-1,5-benzothiazepin-8-yl)oxy)acrylic Acid] the same measures were 487 nM, 328 nM and 100 nM.
Regarding `CCC1(CC)CN(c2ccccc2)c2cc(Br)c(O/C=C(\F)C(=O)O)cc2S(=O)(=O)C1` [Example 56, (Z)-3-((7-bromo-3,3-diethyl-1,1-dioxido-5-phenyl-2,3,4,5-tetrahydro-1,5-benzothiazepin-8-yl)oxy)-2-fluoroacrylic Acid], the IC50 on Human ASBT worked out at 380 nM; with HepaRG cells it was 175 nM; on Human LBAT, 37 nM.
